In US20050137233A1, “Prodrugs of 1-methyl-2-(4-amidinophenylaminomethyl)-benzimidazol-5-yl-carboxylic acid-(N-2-pyridyl-N-2-hydroxycarbonylethyl)-amide” (Boehringer Ingelheim Pharma GmbH & Co. KG, priority 2002, published 2005):

Assays:
female rabbits = assay: local tolerance after subcutaneous administration, histological comparison of injection sites with placebo sites; assay type: in vivo
Source text: For example the compounds • A=1-methyl-2-[4-(N-hydroxyamidino)-phenylaminomethyl]-benzimidazol-5-yl-carboxylic acid-(N-2-pyridyl-N-2-ethoxycarbonylethyl)-amide and • B=1-methyl-2-[4-(N-methoxycarbonylamidino)-phenylaminomethyl]-benzimidazol-5-yl-carboxylic acid-(N-2-pyridyl-N-2-hydroxycarbonylethyl)-amide were investigated for their degree of tolerance when administered by subcutaneous route by comparison with active substance II:
Solutions of the test substances were each administered by subcutaneous route once a day on three successive days to two female rabbits (age: 11 to 14 weeks, weight: 2.0 to 3.5 kg). At the same time as the substances were administered a placebo solution was injected contralaterally into the same animal. The animals were killed 48 hours after the last administration and dissected. The injection sites for administering the test substances were compared histologically with the sites of the placebo injections.

[1] = conversion of the prodrugs into active substance II, plasma concentration by HPLC-MS/MS after subcutaneous administration; assay type: in vivo; settings: rabbits, after subcutaneous injection, active substance II measured in plasma, detection limit 4 ng/ml
Description: In order to investigate the conversion of the prodrugs A and B into the active substance II, 1.0 ml of blood were taken from the central auricular artery of each of the test animals with K-EDTA syringes at various times after subcutaneous administration. The blood was centrifuged and the plasma was acidified with the same volume of 0.2 M hydrochloric acid. These solutions were stored at −20° C. The concentrations of the active substance II were measured using an HPLC-MS/MS apparatus (Perkin Elmer Sciex API 300 LC-MS/MS system). The detection limit was 4 ng/ml.

Structure (SMILES) | degree of tolerance at the injection sites when administered by subcutaneous route (female rabbits; female rabbits, subcutaneous once a day on three successive days, histology 48 hours after the last administration, versus contralateral placebo injection) | conversion of the prodrug into the active substance II [1] | degree of tolerance at the injection sites when administered by subcutaneous route (female rabbits; rabbit, in vivo, sc)
COC(=O)/N=C(/N)c1ccc(NCc2nc3cc(C(=O)N(CCC(=O)O)c4ccccn4)ccc3n2C)cc1 [B, 1-methyl-2-[4-(N-methoxycarbonylamidino)-phenylaminomethyl]-benzimidazol-5-yl-carboxylic acid-(N-2-pyridyl-N-2-hydroxycarbonylethyl)-amide] | very well tolerated locally | converted into the active substance II | –
Cn1c(CNc2ccc(C(=N)N)cc2)nc2cc(C(=O)N(CCC(=O)O)c3ccccn3)ccc21 [II, 1-methyl-2-(4-amidinophenylaminomethyl)-benzimidazol-5-yl-carboxylic acid-(N-2-pyridyl-N-2-hydroxycarbonylethyl)-amide] | – | – | clear signs of inflammation at the injection sites
CCOC(=O)CCN(C(=O)c1ccc2c(c1)nc(CNc1ccc(/C(N)=N\O)cc1)n2C)c1ccccn1 [A, 1-methyl-2-[4-(N-hydroxyamidino)-phenylaminomethyl]-benzimidazol-5-yl-carboxylic acid-(N-2-pyridyl-N-2-ethoxycarbonylethyl)-amide] | – | converted into the active substance II | very well tolerated locally
